Results on 10 molecules are retold here after PubChem BioAssay (NCI).

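Test compounds were applied to cells in 96-well plates for 48 hours at 5 doses. Abbreviation: GI50, concentration required for 50% inhibition of growth. TGI: concentration producing complete growth inhibition.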

Some test systems named below: A549 NSCLC; SK-MEL-28 melanoma; NCI/ADR-RES ovarian; SR leukemia; SF-295 CNS; OVCAR-8 ovarian; SF-539 CNS; HS 578T breast; LOX IMVI melanoma; BT-549 breast.
Common to all, as to assay: NCI tumour cell line growth inhibition, 48 h

As to `CCOC(=O)C1=CCCC[C@H]1S(=O)(=O)Nc1ccc(F)cc1Cl`, the GI50 with A549 NSCLC is 35.4 µM; in the assay on SK-MEL-28 melanoma it was 28 µM; in the assay on NCI/ADR-RES ovarian it was 33.9 µM; in the assay on SR leukemia it was 23.9 µM; in the assay with SF-295 CNS, 32.7 µM; with OVCAR-8 ovarian, 27.9 µM. Also, the GI50 was 22.8 µM in the assay with SF-539 CNS, 20.3 µM in the assay with HS 578T breast, 22.7 µM in the assay on LOX IMVI melanoma and 19.6 µM in the assay with BT-549 breast. Also, the TGI in the assay on A549 NSCLC, with SK-MEL-28 melanoma, in the assay on NCI/ADR-RES ovarian, in the assay on SR leukemia, with SF-295 CNS and with OVCAR-8 ovarian was greater than 100 µM each time. The TGI was 55.2 µM in the assay with SF-539 CNS, 89.3 µM in the assay with HS 578T breast, greater than 100 µM in the assay with LOX IMVI melanoma and 61 µM in the assay on BT-549 breast.
With `CCc1nc(N)nc(N)c1-c1ccc(Cl)c([N+](=O)[O-])c1`, the TGI in the assay on A549 NSCLC is greater than 100 µM; with SK-MEL-28 melanoma it was greater than 100 µM; with NCI/ADR-RES ovarian, greater than 100 µM; in the assay on SR leukemia it was greater than 26.5 µM; in the assay on SF-295 CNS, greater than 70.4 µM; in the assay on OVCAR-8 ovarian it was greater than 100 µM. Besides, the TGI is 51.4 µM in the assay with SF-539 CNS, greater than 100 µM in the assay with HS 578T breast, greater than 100 µM in the assay on LOX IMVI melanoma and greater than 100 µM in the assay on BT-549 breast.
As for `Cc1c(-c2cnccn2)ssc1=S`, the TGI is greater than 100 µM with A549 NSCLC; greater than 100 µM in the assay on SK-MEL-28 melanoma; greater than 100 µM in the assay with NCI/ADR-RES ovarian; greater than 100 µM in the assay on SR leukemia; greater than 95.1 µM with SF-295 CNS; greater than 100 µM with OVCAR-8 ovarian. Also, the TGI was greater than 100 µM with SF-539 CNS, 91.8 µM in the assay with HS 578T breast, 98.8 µM in the assay on LOX IMVI melanoma and 68.5 µM with BT-549 breast.
With `O=C(O)CCNCC(=O)O`, the TGI in the assay on A549 NSCLC, in the assay with SK-MEL-28 melanoma, with NCI/ADR-RES ovarian, with SR leukemia, with SF-295 CNS and in the assay on OVCAR-8 ovarian was greater than 100 µM in each case. In addition, the TGI in the assay on SF-539 CNS, with HS 578T breast, in the assay with LOX IMVI melanoma and in the assay with BT-549 breast was greater than 100 µM in each case.
As to `COc1cc2c(cc1OC(C)C)[C@H](c1ccc(Cl)cc1)N(c1ccc(N(C)CC3CCC(N4CCN(C)C(=O)C4)CC3)cc1)C(=O)C2` (stereo not given in full), the GI50 was 0.537 µM in the assay on A549 NSCLC; 2 µM in the assay with SK-MEL-28 melanoma; 3.18 µM in the assay on NCI/ADR-RES ovarian; 0.123 µM in the assay on SR leukemia; 2.16 µM in the assay with SF-295 CNS; 5.86 µM in the assay with OVCAR-8 ovarian. Also, the GI50 in the assay on SF-539 CNS was 1.64 µM; in the assay on HS 578T breast it was 3.48 µM; in the assay on LOX IMVI melanoma, 0.516 µM; with BT-549 breast, 2.18 µM. For the same molecule, the TGI in the assay on A549 NSCLC stood at 5.24 µM; in the assay with SK-MEL-28 melanoma it was 4.29 µM; in the assay on NCI/ADR-RES ovarian, 14.7 µM; with SR leukemia, 1.97 µM; in the assay with SF-295 CNS, 5.46 µM; with OVCAR-8 ovarian it was 20.3 µM. Besides, the TGI with SF-539 CNS was found to be 3.21 µM; with HS 578T breast it was 13.1 µM; with LOX IMVI melanoma it was 2.19 µM; with BT-549 breast it was 7.7 µM.
For the molecule `O=C1Nc2c(ccc(Cl)c2Cl)/C1=C/c1cc(Br)c(O)c(Br)c1`, the GI50 was 7.7 µM in the assay with A549 NSCLC; 7.07 µM with SK-MEL-28 melanoma; 2.95 µM in the assay on NCI/ADR-RES ovarian; 2.77 µM with SR leukemia; 2.71 µM with SF-295 CNS; 10 µM in the assay with OVCAR-8 ovarian. Further, the GI50 in the assay on SF-539 CNS was 3.21 µM; with HS 578T breast, 4.32 µM; with LOX IMVI melanoma, 6.94 µM; in the assay on BT-549 breast, 2.92 µM. Also, the TGI with A549 NSCLC is greater than 100 µM; in the assay on SK-MEL-28 melanoma it was greater than 100 µM; in the assay on NCI/ADR-RES ovarian it was greater than 24.1 µM; in the assay with SR leukemia, greater than 39.3 µM; with SF-295 CNS, 19.8 µM; with OVCAR-8 ovarian, greater than 100 µM. In addition, the TGI with SF-539 CNS is 14.8 µM; in the assay on HS 578T breast, 46.4 µM; in the assay on LOX IMVI melanoma, 63.6 µM; in the assay with BT-549 breast, 17.5 µM.
For the molecule `CNC(=O)c1c(C)oc2cc(Oc3ncnc4cc(OC)c(OC)cc34)ccc12`, the GI50 in the assay with A549 NSCLC, in the assay with SK-MEL-28 melanoma, with NCI/ADR-RES ovarian, in the assay with SR leukemia, in the assay with SF-295 CNS and with OVCAR-8 ovarian was greater than 100 µM each time. Further, the GI50 in the assay with SF-539 CNS is 2.03 µM; with HS 578T breast, 4.18 µM; with LOX IMVI melanoma, greater than 100 µM; with BT-549 breast it was greater than 100 µM. Besides, the TGI in the assay on A549 NSCLC, in the assay with SK-MEL-28 melanoma, in the assay with NCI/ADR-RES ovarian, in the assay on SR leukemia, in the assay with SF-295 CNS and with OVCAR-8 ovarian was greater than 100 µM in each case. Besides, the TGI in the assay with SF-539 CNS, in the assay with HS 578T breast, with LOX IMVI melanoma and in the assay on BT-549 breast was greater than 100 µM in each case.
For the molecule `CN(Cc1ccccc1)Cn1ccnc1`, the TGI was greater than 100 µM in the assay on A549 NSCLC; greater than 68 µM in the assay with SK-MEL-28 melanoma; greater than 100 µM in the assay with NCI/ADR-RES ovarian; greater than 66.8 µM with SR leukemia; greater than 100 µM with SF-295 CNS; greater than 100 µM with OVCAR-8 ovarian. Moreover, the TGI with SF-539 CNS, in the assay on HS 578T breast, in the assay on LOX IMVI melanoma and in the assay with BT-549 breast was greater than 100 µM in each case.
On to `Cc1cnc2n1S(=O)(=O)c1cc(C(=O)Nc3cccc4nsnc34)c(Cl)cc1S2`, for which the GI50 in the assay on A549 NSCLC is 46.9 µM; with SK-MEL-28 melanoma, 19.8 µM; in the assay on NCI/ADR-RES ovarian, 16.2 µM; with SR leukemia, 29.1 µM; with SF-295 CNS it was 22.8 µM; with OVCAR-8 ovarian it was 33.6 µM. Moreover, the GI50 with SF-539 CNS was 23.4 µM; in the assay on HS 578T breast it was 24.5 µM; with LOX IMVI melanoma, 32.9 µM; in the assay on BT-549 breast it was greater than 100 µM. Besides, the TGI was greater than 100 µM with A549 NSCLC; 42.6 µM with SK-MEL-28 melanoma; 34.1 µM in the assay on NCI/ADR-RES ovarian; greater than 100 µM in the assay with SR leukemia; 49.3 µM with SF-295 CNS; greater than 100 µM with OVCAR-8 ovarian. Moreover, the TGI in the assay with SF-539 CNS is 50.2 µM; in the assay with HS 578T breast, 63.3 µM; with LOX IMVI melanoma, greater than 100 µM; in the assay on BT-549 breast, greater than 100 µM.
`O=C(O)CSc1n[nH]c(=O)[nH]c1=O`: the TGI with A549 NSCLC, in the assay on SK-MEL-28 melanoma, in the assay with NCI/ADR-RES ovarian, with SR leukemia, in the assay with SF-295 CNS and in the assay with OVCAR-8 ovarian was greater than 100 µM in each case. In addition, the TGI in the assay on SF-539 CNS, with HS 578T breast, with LOX IMVI melanoma and in the assay with BT-549 breast was greater than 100 µM each time.
